Test results published in article PMC5514931, “Repositioning chlorpromazine for treating chemoresistant glioma through the inhibition of cytochrome c oxidase bearing the COX4-1 regulatory subunit” (Oncotarget, 2017).

Assays:
[1] = target: T1, cytochrome c oxidase (CcO, complex IV), purified from bovine heart; COX4-1 the most abundant COX4 isoform (Bos taurus, UniProt P00396+P00423); assay: inhibition of purified CcO activity, dose-response; type: biochemical
T1 construct: gene COX4I1; purified CcO from bovine heart (Sigma-Aldrich C5499), whole multi-subunit complex; with COX1 and the other CcO subunits

[2] = target: T2, cytochrome c oxidase (CcO, complex IV) bearing the COX4-1 regulatory subunit (Homo sapiens, UniProt P00395+P13073); assay: CcO activity and Michaelis-Menten kinetics in mitochondrial extracts; type: biochemical
T2 construct: gene COX4I1; CcO in mitochondrial extracts of UTMZ, U251-TgCOX4-1 (FLAG-tagged COX4-1) and GSC (J × 12, J × 39) cells; with COX1 and the other CcO subunits
T2 sequence (P00414 whole entry): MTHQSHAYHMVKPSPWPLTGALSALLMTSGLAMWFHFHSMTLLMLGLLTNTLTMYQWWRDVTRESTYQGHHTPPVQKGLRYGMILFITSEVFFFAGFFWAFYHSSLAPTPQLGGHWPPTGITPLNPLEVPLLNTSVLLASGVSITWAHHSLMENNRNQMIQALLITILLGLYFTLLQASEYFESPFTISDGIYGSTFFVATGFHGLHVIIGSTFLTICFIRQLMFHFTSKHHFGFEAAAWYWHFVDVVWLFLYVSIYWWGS
T2 sequence (P00403 whole entry, further chain): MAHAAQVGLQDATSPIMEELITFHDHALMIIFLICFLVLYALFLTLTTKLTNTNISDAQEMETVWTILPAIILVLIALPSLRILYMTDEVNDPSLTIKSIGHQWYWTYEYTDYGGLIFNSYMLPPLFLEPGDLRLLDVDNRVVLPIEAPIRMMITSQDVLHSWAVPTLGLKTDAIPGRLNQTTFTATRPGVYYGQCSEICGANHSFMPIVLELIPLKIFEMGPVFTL
T2 sequence (P13073 23-169): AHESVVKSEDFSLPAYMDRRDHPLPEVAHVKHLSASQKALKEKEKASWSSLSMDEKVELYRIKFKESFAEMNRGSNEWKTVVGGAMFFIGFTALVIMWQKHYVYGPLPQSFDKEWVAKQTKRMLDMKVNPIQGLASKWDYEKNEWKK

Which results are given for CN(C)CCCN1c2ccccc2Sc2ccc(Cl)cc21 [CPZ, Chlorpromazine]?
IC50 [1]: 25.8 ± 3.75 µM; IC50 [2]: ~2 µM
